Results taken from patent US6967201B1, “Benzofurylpiperazines and benzofurylhomopiperazines: serotonin agonists” (Eli Lilly and Company, priority 1999, dated 2005).

Row | melting point | SMILES
1 | 191 °C (dec.) | C[C@H]1CN(c2ccc(F)c3ccoc23)CCN1.O=C(O)C(=O)O
2 | 162 to 165 °C | CC1(C)CNCCN1c1cc(F)cc2ccoc12.O=C(O)/C=C/C(=O)O
3 | 192 °C (dec.) | C[C@@H]1CN(c2ccc(F)c3ccoc23)CCN1.O=C(O)C(=O)O
